Test system: MIA PaCa-2
Procedure: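 MIA PaCa-2 Tet-on shOFD1 pancreatic cancer cells (2000 cells/well, 96-well) were treated with Selleck FDA-approved library compounds at 0, 1, 5, 10, 25 and 50 µM, with extra concentrations added where needed, for 72 h at 37 °C. Knockdown wells also received 100 ng/mL doxycycline; control wells received DMSO without doxycycline. Viability was read by CCK-8 absorbance at 450 nm and normalised to DMSO control wells. IC50 was fitted in GraphPad Prism as a 4-parameter logistic with bottom fixed at 0 and top fixed at 1; at least 3 technical replicate wells per condition.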

[1] = OFD1 knockdown: no (no doxycycline)
[2] = OFD1 knockdown: yes (Tet-on shOFD1, 100 ng/mL doxycycline)

SMILES | IC50 cell viability [1] | IC50 cell viability [2]
C[C@]1(c2nc3c(C(N)=O)cccc3[nH]2)CCCN1 [S1004] | 77 µM | 44.1 µM
Cn1cnc2c(F)c(Nc3ccc(Br)cc3Cl)c(C(=O)NOCCO)cc21 [S1008] | 1.66 µM | 1.44 µM
CN(C)C/C=C/C(=O)Nc1cc2c(Nc3ccc(F)c(Cl)c3)ncnc2cc1O[C@H]1CCOC1 [S1011] | 66.1 µM | 87.7 µM
C#Cc1cccc(Nc2ncnc3cc(OCCOC)c(OCCOC)cc23)c1 [S1023] | 59.1 µM | 65.3 µM
Nc1cccc2c1CN(C1CCC(=O)NC1=O)C2=O (configuration not stated) [S1029] | 44 µM | 42.9 µM
Cc1cn(-c2cc(NC(=O)c3ccc(C)c(Nc4nccc(-c5cccnc5)n4)c3)cc(C(F)(F)F)c2)cn1 [S1033] | 18.9 µM | 17.3 µM
CO[C@H]1C[C@@H]2CC[C@@H](C)[C@@](O)(O2)C(=O)C(=O)N2CCCC[C@H]2C(=O)O[C@H]([C@H](C)C[C@@H]2CC[C@@H](O)[C@H](OC)C2)CC(=O)[C@H](C)/C=C(\C)[C@@H](O)[C@@H](OC)C(=O)[C@H](C)C[C@H](C)/C=C/C=C/C=C/1C [S1039] | 0.56 µM | 0.54 µM
CCN(CC)CCNC(=O)c1c(C)[nH]c(/C=C2\C(=O)Nc3ccc(F)cc32)c1C [S1042] | 2.85 µM | 2.98 µM
CO[C@H]1C[C@@H]2CC[C@@H](C)[C@@](O)(O2)C(=O)C(=O)N2CCCC[C@H]2C(=O)O[C@H]([C@H](C)C[C@@H]2CC[C@@H](OC(=O)C(C)(CO)CO)[C@H](OC)C2)CC(=O)[C@H](C)/C=C(\C)[C@@H](O)[C@@H](OC)C(=O)[C@H](C)C[C@H](C)/C=C/C=C/C=C/1C [S1044] | 27 µM | 24 µM
O=C(CCCCCCC(=O)Nc1ccccc1)NO [S1047] | 5.55 µM | 5.13 µM
Cn1cc(C2=C(c3cn(C4CCN(Cc5ccccn5)CC4)c4ccccc34)C(=O)NC2=O)c2ccccc21 [S1055] | 13.8 µM | 12.5 µM
C[C@@H](Oc1cc(-c2cnn(C3CCNCC3)c2)cnc1N)c1c(Cl)ccc(F)c1Cl [S1068] | 1.73 µM | 1.39 µM
NC(=O)c1ccc(I)c([N+](=O)[O-])c1 [S1087] | 69.1 µM | 51.3 µM
CC(=O)c1c(C)c2cnc(Nc3ccc(N4CCNCC4)cn3)nc2n(C2CCCC2)c1=O [S1116] | 43.1 µM | 46.4 µM
CO[C@H]1C[C@@H]2CC[C@@H](C)[C@@](O)(O2)C(=O)C(=O)N2CCCC[C@H]2C(=O)O[C@H]([C@H](C)C[C@@H]2CC[C@@H](OCCO)[C@H](OC)C2)CC(=O)[C@H](C)/C=C(\C)[C@@H](O)[C@@H](OC)C(=O)[C@H](C)C[C@H](C)/C=C/C=C/C=C/1C [S1120] | 2.19 µM | 2.81 µM
COCC[n+]1c2c(n(Cc3cnccn3)c1C)C(=O)c1ccccc1C2=O [S1130] | 0.82 µM | 0.92 µM
CC(C)OC(=O)C(C(=O)OC(C)C)=C1SC=CS1 [S1137] | 38.1 µM | 36.1 µM
C=CCNC1=C2C[C@@H](C)C[C@H](OC)[C@H](O)[C@@H](C)/C=C(\C)[C@H](OC(N)=O)[C@@H](OC)/C=C\C=C(/C)C(=O)NC(=CC1=O)C2=O [S1141] | 1.07 µM | 0.75 µM
CCCCCOC(=O)Nc1nc(=O)n([C@@H]2O[C@H](C)[C@@H](O)[C@H]2O)cc1F [S1156] | 34 µM | 34.3 µM
COc1cc2nccc(Oc3ccc(NC(=O)NC4CC4)c(Cl)c3)c2cc1C(N)=O [S1164] | 21.1 µM | 19.7 µM
CNC(=O)c1cc(Oc2ccc(NC(=O)Nc3ccc(Cl)c(C(F)(F)F)c3)c(F)c2)ccn1 [S1178] | 1.56 µM | 1.28 µM
CC(C)(C#N)c1cc(Cn2cncn2)cc(C(C)(C)C#N)c1 [S1188] | 47.1 µM | 59.2 µM
C[C@@H](O[C@H]1OCCN(Cc2n[nH]c(=O)[nH]2)[C@H]1c1ccc(F)cc1)c1cc(C(F)(F)F)cc(C(F)(F)F)c1 [S1189] | 13.9 µM | 14.2 µM
CC(O)(CS(=O)(=O)c1ccc(F)cc1)C(=O)Nc1ccc(C#N)c(C(F)(F)F)c1 (configuration not stated) [S1190] | 53.5 µM | 45.6 µM
C[C@]12CC[C@@H]3c4ccc(O)cc4C[C@@H](CCCCCCCCC[S+]([O-])CCCC(F)(F)C(F)(F)F)[C@H]3[C@@H]1CC[C@@H]2O (some centres not stated) [S1191] | 25.6 µM | 24.5 µM

Further lines, results first:

IC50 cell viability [1] | IC50 cell viability [2] | SMILES
18.7 µM | 19 µM | CC1(C)CCC(c2ccc(Cl)cc2)=C(CN2CCN(c3ccc(C(=O)NS(=O)(=O)c4ccc(N[C@H](CCN5CCOCC5)CSc5ccccc5)c(S(=O)(=O)C(F)(F)F)c4)cc3)CC2)C1 [S1001]
6.31 µM | 6.22 µM | Cc1ccc(F)c(NC(=O)Nc2ccc(-c3cccc4[nH]nc(N)c34)cc2)c1 [S1003]
38.7 µM | 43.9 µM | CNC(=O)c1ccccc1Sc1ccc2c(/C=C/c3ccccn3)n[nH]c2c1 [S1005]
7.48 µM | 8.13 µM | CN1CCN(CCOc2cc(OC3CCOCC3)c3c(Nc4c(Cl)ccc5c4OCO5)ncnc3c2)CC1 [S1006]
4.96 µM | 4.24 µM | COC(=O)c1ccc2c(C(=Nc3ccc(N(C)C(=O)CN4CCN(C)CC4)cc3)c3ccccc3)c(O)[nH]c2c1 [S1010]
6.31 µM | 6.07 µM | COc1cc(Nc2c(C#N)cnc3cc(OCCCN4CCN(C)CC4)c(OC)cc23)c(Cl)cc1Cl [S1014]
13.1 µM | 13.5 µM | COc1cc2c(Oc3ccc4[nH]c(C)cc4c3F)ncnc2cc1OCCCN1CCCC1 [S1017]
12.9 µM | 11.7 µM | CN1CCN(c2ccc3nc(-c4c(N)c5c(F)cccc5[nH]c4=O)[nH]c3c2)CC1 [S1018]
0.81 µM | 0.61 µM | Cc1nc(Nc2ncc(C(=O)Nc3c(C)cccc3Cl)s2)cc(N2CCN(CCO)CC2)n1 [S1021]
2.22 µM | 1.71 µM | COc1cc2ncnc(Nc3ccc(F)c(Cl)c3)c2cc1OCCCN1CCOCC1 [S1025]
15 µM | 14.8 µM | Cc1ccc(NC(=O)c2ccc(CN3CCN(C)CC3)cc2)cc1Nc1nccc(-c2cccnc2)n1 [S1026]
16.8 µM | 15 µM | CS(=O)(=O)CCNCc1ccc(-c2ccc3ncnc(Nc4ccc(OCc5cccc(F)c5)c(Cl)c4)c3c2)o1 [S1028]
8.15 µM | 7.5 µM | CNC(=O)c1cc(Oc2ccc(NC(=O)Nc3ccc(Cl)c(C(F)(F)F)c3)cc2)ccn1 [S1040]
5.87 µM | 5.04 µM | COc1cc2/c(=N/c3ccc(Br)cc3F)nc[nH]c2cc1OCC1CCN(C)CC1 [S1046]
22.9 µM | 22.7 µM | Cc1cc(Nc2cc(N3CCN(C)CC3)nc(Sc3ccc(NC(=O)C4CC4)cc3)n2)n[nH]1 [S1048]
11 µM | 11.2 µM | Nc1ccccc1NC(=O)c1ccc(CNC(=O)OCc2cccnc2)cc1 [S1053]

IC50 cell viability [1] | IC50 cell viability [2] | SMILES
53.8 µM | 31.9 µM | O=C(c1cc(Cc2n[nH]c(=O)c3ccccc23)ccc1F)N1CCN(C(=O)C2CC2)CC1 [S1060]
68.8 µM | 66.2 µM | Cc1ccc(NC(=O)c2ccc(CN3CCN(C)CC3)cc2)cc1Nc1nc(-c2cccnc2)cs1 [S1064]
10.2 µM | 7.9 µM | CS(=O)(=O)N1CCN(Cc2cc3nc(-c4cccc5[nH]ncc45)nc(N4CCOCC4)c3s2)CC1 [S1065]
61.8 µM | 69 µM | CS(=O)(=O)c1ccc(C(=O)Nc2ccc(Cl)c(-c3ccccn3)c2)c(Cl)c1 [S1082]
3.67 µM | 3.5 µM | O=C(/C=C/c1cccc(S(=O)(=O)Nc2ccccc2)c1)NO [S1085]
48.3 µM | 49.9 µM | C[C@]1(O)C[C@@H](c2nc(-c3ccc4ccc(-c5ccccc5)nc4c3)c3c(N)nccn32)C1 [S1091]
0.41 µM | 0.39 µM | Cn1cc(CNCC2CCN(c3ncc(C(=O)NO)cn3)CC2)c2ccccc21 [S1096]
31.8 µM | 18.9 µM | CNCc1ccc(-c2[nH]c3cc(F)cc4c3c2CCNC4=O)cc1 [S1098]
30.8 µM | 24.3 µM | Clc1ccc(Nc2nnc(Cc3ccncc3)c3ccccc23)cc1 [S1101]
1.29 µM | 1.07 µM | Nc1ccccc1NC(=O)c1ccc(CNc2nccc(-c3cccnc3)n2)cc1 [S1122]
8.24 µM | 10.5 µM | COc1cc(Nc2ncc3c(n2)-c2ccc(Cl)cc2C(c2c(F)cccc2OC)=NC3)ccc1C(=O)O [S1133]
16.7 µM | 15.1 µM | CCN(CCO)CCCOc1ccc2c(Nc3cc(CC(=O)Nc4cccc(F)c4)[nH]n3)ncnc2c1 [S1147]
0.39 µM | 0.34 µM | CC(=O)O[C@@]12CO[C@@H]1C[C@H](O)[C@@]1(C)C(=O)[C@H](O)C3=C(C)[C@@H](OC(=O)[C@H](O)[C@@H](NC(=O)OC(C)(C)C)c4ccccc4)C[C@@](O)([C@@H](OC(=O)c4ccccc4)[C@H]21)C3(C)C [S1148]
19 µM | 17.6 µM | CC(=O)O[C@H]1C(=O)[C@@]2(C)[C@H]([C@H](OC(=O)c3ccccc3)[C@]3(O)C[C@H](OC(=O)[C@H](O)[C@@H](NC(=O)c4ccccc4)c4ccccc4)C(C)=C1C3(C)C)[C@]1(OC(C)=O)CO[C@@H]1C[C@@H]2O [S1150]
2.42 µM | 2.01 µM | CC(C)c1cc(-c2n[nH]c(=O)n2-c2ccc3c(ccn3C)c2)c(O)cc1O [S1159]

Reference: the supplement of paper PMC12325586
